Assay results as given in the SangsterLogP compilation.

Assay: method code SF-AS, from DOI: 10.1021/acs.jmedchem.6b01691, PMID: 28051859

Structure (SMILES)	logP
CSc1ccc(F)cc1	2.77
O=[N+]([O-])c1ccc(OC(F)F)cc1	1.98
Fc1cccc(OC(F)F)c1	2.59
FC(F)Sc1ccccc1	2.89
Cc1ccc(SC(F)F)cc1	3.41
CC(=O)Nc1ccc(SC(F)F)cc1	2.42
COc1ccc(SC(F)F)cc1	3.11
CSc1ccc(Cl)cc1	3.01
COc1cccc(C(F)(F)F)c1	2.79
COc1ccc(C(=O)c2ccccc2)cc1	2.69
CSc1ccc(C)cc1	3.01
COc1ccc(OC(F)F)cc1	2.35
Fc1ccc(OC(F)F)cc1	2.47
COc1ccc(C)cc1	2.56
CSc1ccccc1	2.6
FC(F)Sc1ccc(Br)cc1	2.96
COc1ccc(SC)cc1	2.66
FC(F)Oc1ccc(C(F)(F)F)cc1	2.76
O=[N+]([O-])c1ccc(SC(F)F)cc1	2.54
Cc1cccc(OC(F)F)c1	2.87
COc1ccc(C(F)(F)F)cc1	2.87
Cc1ccc(OC(F)F)cc1	2.88
FC(F)Sc1ccc(Cl)cc1	3.24
Fc1ccc(SC(F)F)cc1	2.92
COc1ccc(F)cc1	2.14
COc1cccc(F)c1	2.43
CSc1ccc([N+](=O)[O-])cc1	2.64
CSc1ccc(Br)cc1	2.78
FC(F)Oc1cccc(C(F)(F)F)c1	2.69
